Test results taken from patent US20230295152A1 (SENDA BIOSCIENCES, INC., priority 2019, published 2023).
≈ marks a conversion by molar mass, not a printed value. Like-named read-outs stand apart in the source and are kept apart here.

What was measured:
[1] = Hepatocyte Stability Assay, human; assay type: in vitro ADME; details: for CLint scaled at 1 μM: cryopreserved hepatocytes in suspension, human hepatocytes, read-out: Human hepatocyte clearance; for Human hepatocyte intrinsic clearance, suspension Hheps ClInt (% Qh): suspension human hepatocytes
Experimental: • Preparation of working solutions: 10 mM stock solutions of test compound and positive control were prepared in DMSO. In separate conical tubes, the 10 mM solution of test compound and the positive control were diluted to 100 μM by combining 198 μL of 50% acetonitrile/50% water and 2 μL of 10 mM stock.
Preparation of Hepatocytes: Incubation medium (William's E Medium supplemented with GlutaMAX) and hepatocyte thawing medium were placed in a 37° C. water bath and allowed warming for at least 15 minutes prior to use. A vial of cryopreserved hepatocytes was transferred from storage, ensuring that vials remained at cryogenic temperatures until thawing process ensued. Cells were thawed by placing the vial in a 37° C. water bath and gently shaking the vials for 2 minutes. After thawing was completed, vial was sprayed with 70% ethanol and transferred to a biosafety cabinet. Wide-bore pipette tip were used to transfer hepatocytes into 50 mL conical tube containing thawing medium. The 50 mL conical tube were placed into a centrifuge and spun at 100 g for 10 minutes. Upon completion of spin, thawing medium was aspirated and resuspended hepatocytes in enough incubation medium to yield ˜1.5×10^6 cells/mL. Using an AO/PI Staining, cells were counted and the viable cell density was determined. Cells with poor viability (<75% viability) were determined to be not acceptable for use. Cells were diluted with incubation medium to a working cell density of 0.5×10^6 viable cells/mL.
Procedure for Stability Determination: 198 μL of hepatocytes were pipetted into each wells of a 96-well non-coated plate. The plate was placed in the incubator to allow the hepatocytes to warm for 10 minutes. 2 μL of the 100 μM test compound or positive control solutions were pipetted into respective wells of the 96-well non-coated plate to start the reaction. The plate was returned to the incubator for the designed time points. Well contents was transferred in 25 μL aliquots at time points of 0, 15, 30, 60, 90 and 120 minutes. The aliquots were then mixed with 6 volumes (150 μL) of acetonitrile containing internal standard, IS (100 nM alprazolam, 200 nM caffeine and 100 nM tolbutamide) to terminate the reaction. The mixture was vortex for 5 minutes. Samples were centrifuged for 45 minutes at 3,220 g. An aliquot of 100 μL of the supernatant was diluted by 100 μL ultra-pure water, and the mixture was used for LC/MS/MS analysis. All incubations were performed in duplicate.
Data Analysis: All calculations were carried out using Microsoft Excel. Peak areas were determined from extracted ion chromatograms. In vitro half-life (t1/2) of parent compound was determined by regression analysis of the percent parent disappearance vs. time curve.
The in vitro half-life (in vitro t1/2) was determined from the slope value:
Conversion of the in vitro t1/2 (in min) into the in vitro intrinsic clearance (in vitro CLint, in μL/min/1×10^6 cells) was done using the following equation (mean of duplicate determinations):
V=incubation volume(0.2 mL);
N=number of hepatocytes per well(0.1×10^6 cells).
“+++” indicates a CLint value less than 20 mL/min/Kg, “++” indicates a CLint between 20 and 50 mL/min/Kg, and “+” indicates an CLint above 50 mL/min/Kg.

[2] = Solubility Determination Assay in PBS pH 1.6 and pH 7.4; assay type: physicochemical; details: PBS buffer, aqueous buffer, kinetic from dmso stock
Experimental: The stock solutions of test compounds and control compound progesterone were prepared in DMSO at the concentrations of 10 mM. 15 μL of stock solution (10 mM) of each sample was placed in order into their proper 96-well rack. 485 μL of PBS pH 1.6 and pH 7.4 were added into each vial of the cap-less Solubility Sample plate. The assay was performed in singlet. One stir stick was added to each vial and then the vial was sealed using a molded PTFE/Silicone plug. […] After completion of the 2 hours, plugs were removed and the stir sticks were removed using a big magnet. The samples from the Solubility Sample plate were transferred into the filter plate. Using the Vacuum Manifold, all the samples were filtered. An aliquot of 5 μL was taken from the filtrate followed by addition of 495 μL of a mixture of H2O and acetonitrile containing internal standard (1:1). A certain proportion of ultrapure water was used to dilute the diluent according to the peak shape. The dilution factor was changed according to the solubility values and the LC-MS signal response.
From the 10 mM DMSO STD plate, 6 μL was transferred into the remaining empty plate, and then 194 μL of DMSO were added to that plate to have a STD concentration of 300 μM. From the 300 μM DMSO STD plate, 5 μL were transferred into the remaining empty plate, and then 495 μL of a mixture of H2O and acetonitrile containing internal standard (1:1) were added to that plate to have a final STD concentration of 3 μM. A certain proportion of ultrapure water was used to dilute the diluent according to the peak shape. The concentrations of the standard samples were changed according to the LC-MS signal response.
The plate was placed into the well plate autosampler. The samples were evaluated by LC-MS/MS analysis.
All calculations were carried out using Microsoft Excel.
The filtrate was analyzed and quantified against a standard of known concentration using LC coupled with mass spectral peak identification and quantitation. Solubility values of the test compound and control compound were calculated as follows: […]
Any value of the compounds that was not within the specified limits was rejected and the experiment was repeated.
“+++” indicates a solubility value equal to or greater than 1 μM, “++” indicates a solubility value between 0.1 and 1 μM, and “+” indicates a solubility value less than 0.1 μM.

[3] = PBS pH 1.6, 25° C., read-out: Aq. Solubility at pH = 1.6
[4] = PBS pH 7.4, 25° C., read-out: Aq. Solubility at pH = 7.4

Structure (SMILES)	CLint scaled at 1 μM [1] [mL/min/kg]	Human hepatocyte intrinsic clearance, suspension Hheps ClInt (% Qh) [1] [% Qh]	solubility at 2 h [2, 3] [µM]	solubility at 2 h [2, 4] [µM]
C[C@@H](CO)n1cnc2c(-c3cccnc3)nc(-c3ccc(C(F)(F)F)cn3)cc2c1=O [Compound 46, (S)-3-(1-hydroxypropan-2-yl)-8-(pyridin-3-yl)-6-(5-(trifluoromethyl)pyridin-2-yl)pyrido[3,4-d]pyrimidin-4(3H)-one]	< 20	<31	≥ 1	≥ 1
Cn1cc(-c2nc(-c3ccc(C(F)(F)F)nc3)cc3c(=O)n(CC(C)(C)O)cnc23)cn1 [Compound 60]	< 20		≥ 1	≥ 1
C[C@@H](CO)n1cnc2c(-c3cccnc3)nc(-c3cnc(C(F)(F)F)s3)cc2c1=O [Compound 85]	< 20		≥ 1	≥ 1
CC(C)(O)Cn1cnc2c(-n3ccnc3)nc(-c3ccc(C(F)(F)F)cn3)cc2c1=O [Compound 160, 3-(2-hydroxy-2-methylpropyl)-8-(1H-imidazol-1-yl)-6-(5-(trifluoromethyl)pyridin-2-yl)pyrido[3,4-d]pyrimidin-4(3H)-one]	< 20		≥ 1	≥ 1
O=c1c2cc(-c3ccc(OC(F)(F)F)cc3)nc(-c3cccnc3)c2ncn1C[C@H](O)C(F)(F)F [Compound 124, (S)-8-(pyridin-3-yl)-3-(3,3,3-trifluoro-2-hydroxypropyl)-6-(4-(trifluoromethoxy)phenyl)pyrido[3,4-d]pyrimidin-4(3H)-one]	< 20		≥ 1	< 0.1
Cn1cc(-c2nc(-c3ccc(C4CC4)nc3)cc3c(=O)n(C[C@H](O)C(F)(F)F)cnc23)cn1 [Compound 136, (S)-6-(6-cyclopropylpyridin-3-yl)-8-(1-methyl-1H-pyrazol-4-yl)-3-(3,3,3-trifluoro-2-hydroxypropyl)pyrido[3,4-d]pyrimidin-4(3H)-one]	< 20		≥ 1	0.1 to 1 (≈ 0.0456 to 0.456 µg/mL)
Cc1nc(-c2cc3c(=O)n([C@@H](C)CO)cnc3c(-c3cccnc3)n2)cs1 [Compound 183, (S)-3-(1-hydroxypropan-2-yl)-6-(2-methylthiazol-4-yl)-8-(pyridin-3-yl)pyrido[3,4-d]pyrimidin-4(3H)-one]	< 20		≥ 1	≥ 1
C[C@@H](CO)n1cnc2c(-c3cccnc3)nc(-c3ccc(C4CC4)nc3)cc2c1=O [Compound 74]	< 20		≥ 1	≥ 1
CC(C)(O)Cn1cnc2c(-c3cccnc3)nc(-c3ccc(C(F)(F)F)nc3)cc2c1=O [Compound 9]	< 20	<31	≥ 1	≥ 1
C[C@H](O)Cn1cnc2c(-c3cccnc3)nc(-c3ccc(C(F)(F)F)cn3)cc2c1=O [Compound 143, (S)-3-(2-hydroxypropyl)-8-(pyridin-3-yl)-6-(5-(trifluoromethyl)pyridin-2-yl)pyrido[3,4-d]pyrimidin-4(3H)-one]	< 20		≥ 1	≥ 1
O=c1c2cc(-c3ccc(C(F)(F)F)cn3)nc(-c3cccnc3)c2ncn1[C@H]1COC[C@@H]1O [Compound 139, 3-((3S,4R)-4-hydroxytetrahydrofuran-3-yl)-8-(pyridin-3-yl)-6-(5-(trifluoromethyl)pyridin-2-yl)pyrido[3,4-d]pyrimidin-4(3H)-one]	< 20		≥ 1	≥ 1
CC(C)(O)Cn1cnc2c(-c3cccnc3)nc(-c3ccc(Cl)cc3)cc2c1=O [Compound 18]	< 20		≥ 1	≥ 1
C[C@@H](CO)n1cnc2c(-c3cccnc3)nc(-c3ccc(OC(F)(F)F)nc3)cc2c1=O [Compound 50]	20 to 50		≥ 1	≥ 1
Cc1ncc(-c2cc3c(=O)n([C@@H](C)CO)cnc3c(-c3cccnc3)n2)s1 [Compound 89]	< 20		≥ 1	≥ 1
C[C@@H](CO)n1cnc2c(-c3cccnc3)nc(-c3cnc(C4CC4)s3)cc2c1=O [Compound 66]	20 to 50		≥ 1	≥ 1
O=c1c2cc(-c3ccc(C(F)(F)F)nc3)nc(-c3cccnc3)c2ncn1C[C@@H](O)C(F)(F)F [Compound 122, (R)-8-(pyridin-3-yl)-3-(3,3,3-trifluoro-2-hydroxypropyl)-6-(6-(trifluoromethyl)pyridin-3-yl)pyrido[3,4-d]pyrimidin-4(3H)-one]	< 20		≥ 1	≥ 1
O=c1c2cc(-c3ccc(C4CC4)nc3)nc(-c3cccnc3)c2ncn1C[C@H](O)C(F)(F)F [Compound 120, (S)-6-(6-cyclopropylpyridin-3-yl)-8-(pyridin-3-yl)-3-(3,3,3-trifluoro-2-hydroxypropyl)pyrido[3,4-d]pyrimidin-4(3H)-one]	< 20		≥ 1	≥ 1
CC(C)(O)Cn1cnc2c(-c3cccnc3)nc(-c3ccc(C4CC4)nc3)cc2c1=O [Compound 81]	< 20		≥ 1	≥ 1
C[C@@H](CO)n1cnc2c(-n3ccnc3)nc(-c3ccc(C(F)(F)F)nc3)cc2c1=O [Compound 163, (S)-3-(1-hydroxypropan-2-yl)-8-(1H-imidazol-1-yl)-6-(6-(trifluoromethyl)pyridin-3-yl)pyrido[3,4-d]pyrimidin-4(3H)-one]	< 20		≥ 1	≥ 1
C[C@@H](CO)n1cnc2c(-c3cccc(F)c3)nc(-c3ccc(C(F)(F)F)nc3)cc2c1=O [Compound 8]	< 20			≥ 1
O=c1c2cc(-c3ccc(C(F)(F)F)cn3)nc(-c3cccnc3)c2ncn1C[C@H](O)C(F)(F)F [Compound 104, (S)-8-(pyridin-3-yl)-3-(3,3,3-trifluoro-2-hydroxypropyl)-6-(5-(trifluoromethyl)pyridin-2-yl)pyrido[3,4-d]pyrimidin-4(3H)-one]	< 20		≥ 1	≥ 1
